Assays:
Assay type in all cases: in vivo
Echinochloa crus-galli = test: Post-emergence herbicidal activity against ECHCG; settings: dosage 320 g/ha, rated about 3 weeks after treatment; for pest or weed control at 320 g/ha: Echinochloa crus-galli, 504 h
Experimental: (§1) ECHCG: Echinochloa crus-galli HORMU: Hordeum murinum 2. Post-Emergence Herbicidal Action and Crop Plant Compatibility Seeds of monocotyledonous and dicotyledonous weeds and crop plants are placed in sandy loam in plastic or wood-fiber pots, covered with soil and cultivated in a greenhouse under controlled growth conditions. 2 to 3 weeks after sowing, the test plants are treated at the one-leaf stage. The compounds of the invention, formulated in the form of wettable powders (WP) or as emulsion concentrates (EC), are then sprayed onto the green parts of the plants as aqueous suspension or emulsion with addition of 0.5% additive at a water application rate of 600 l/ha (converted). After the test plants had been kept in the greenhouse under optimum growth conditions for about 3 weeks, the activity of the preparations is rated visually in comparison to untreated controls. For example, 100% activity=the plants have died, 0% activity=like control plants.

Abutilon theophrasti = test: Post-emergence herbicidal activity against ABUTH; settings: dosage 320 g/ha, rated about 3 weeks after treatment
Experimental: as §1, with “ABUTH: Abutilon theophrasti ALOMY: Alopecurus myosuroides” for “ECHCG: Echinochloa crus-galli HORMU: Hordeum murinum”

Lolium rigidum = test: Post-emergence herbicidal activity against LOLRI; settings: dosage 320 g/ha, rated about 3 weeks after treatment
Experimental: as §1, with “LOLRI: Lolium rigidum PHBPU: Pharbitis purpurea” for “ECHCG: Echinochloa crus-galli HORMU: Hordeum murinum”

Hordeum murinum = test: Post-emergence herbicidal activity against HORMU; settings: dosage 320 g/ha
Experimental: as §1

Alopecurus myosuroides = test: Post-emergence herbicidal activity against ALOMY; settings: dosage 320 g/ha, rated about 3 weeks after treatment; for pest or weed control at 320 g/ha: Alopecurus myosuroides, 504 h
Experimental: as §1, with “ABUTH: Abutilon theophrasti ALOMY: Alopecurus myosuroides” for “ECHCG: Echinochloa crus-galli HORMU: Hordeum murinum”

Polygonum convolvulus = test: Post-emergence herbicidal activity against POLCO; settings: dosage 320 g/ha, rated about 3 weeks after treatment; for pest or weed control at 320 g/ha: Fallopia convolvulus, 504 h
Experimental: as §1, with “POLCO: Polygonum convolvulus SETVI: Setaria viridis” for “ECHCG: Echinochloa crus-galli HORMU: Hordeum murinum”

Veronica persica = test: Post-emergence herbicidal activity against VERPE; settings: dosage 320 g/ha; for pest or weed control at 320 g/ha: Veronica persica, 504 h
Experimental: as §1, with “STEME: Stellaria media VERPE: Veronica persica” for “ECHCG: Echinochloa crus-galli HORMU: Hordeum murinum”

Pharbitis purpurea = test: Post-emergence herbicidal activity against PHBPU; settings: dosage 320 g/ha, rated about 3 weeks after treatment; for pest or weed control at 320 g/ha: Ipomoea purpurea, 504 h
Experimental: as §1, with “LOLRI: Lolium rigidum PHBPU: Pharbitis purpurea” for “ECHCG: Echinochloa crus-galli HORMU: Hordeum murinum”

Stellaria media = test: Post-emergence herbicidal activity against STEME; settings: dosage 320 g/ha, rated about 3 weeks after treatment; for pest or weed control at 320 g/ha: Stellaria media, 504 h
Experimental: as §1, with “STEME: Stellaria media VERPE: Veronica persica” for “ECHCG: Echinochloa crus-galli HORMU: Hordeum murinum”

Avena fatua = test: Post-emergence herbicidal activity against AVEFA; settings: dosage 320 g/ha, rated about 3 weeks after treatment; for pest or weed control at 320 g/ha: Avena fatua, 504 h
Experimental: as §1, with “AMARE: Amaranthus retroflexus AVEFA: Avena fatua” for “ECHCG: Echinochloa crus-galli HORMU: Hordeum murinum”

Viola tricolor = test: Post-emergence herbicidal activity against VIOTR; settings: dosage 320 g/ha, rated about 3 weeks after treatment
Experimental: as §1, with “VIOTR: Viola tricolor” for “ECHCG: Echinochloa crus-galli HORMU: Hordeum murinum”

Amaranthus retroflexus = test: Post-emergence herbicidal activity against AMARE; settings: dosage 320 g/ha, rated about 3 weeks after treatment; for pest or weed control at 320 g/ha: Amaranthus retroflexus, 504 h
Experimental: as §1, with “AMARE: Amaranthus retroflexus AVEFA: Avena fatua” for “ECHCG: Echinochloa crus-galli HORMU: Hordeum murinum”

Setaria viridis = test: Post-emergence herbicidal activity against SETVI; settings: dosage 320 g/ha, rated about 3 weeks after treatment; for pest or weed control at 320 g/ha: Setaria viridis, 504 h
Experimental: as §1, with “POLCO: Polygonum convolvulus SETVI: Setaria viridis” for “ECHCG: Echinochloa crus-galli HORMU: Hordeum murinum”

[1] = Post-emergence treatment, summary over harmful plants; settings: 504 h, application rate of 0.32 kg of active substance or less per hectare, read-out: herbicidal action, post-emergence treatment (very good herbicidal activity)
Experimental: 2. Post-Emergence Herbicidal Action and Crop Plant Compatibility
as §1, with “Seeds” for “ECHCG: Echinochloa crus-galli HORMU: Hordeum murinum 2. Post-Emergence Herbicidal Action and Crop Plant Compatibility Seeds”
As shown by the results, compounds according to the invention such as, for example, the compounds No. I-35 and other compounds from the tables (for example I-28, I-38, I-01, I-19, I-36, I-29, I-32, I-11, I-12, I-37, I-06, I-09, I-33, I-34, I-13, I-04, I-26, I-21, I-30, I-05, I-03, I-20, I-27, I-14, I-10, I-23, I-07, I-25, I-02, I-08, I-24, I-41, I-42, I-43, I-44, I-46, I-49, I-54, I-55, I-56) have, when used for post-emergence treatment, very good herbicidal activity (80% to 100% herbicidal action) against harmful plants such as Abutilon theophrasti, Alopecurus myosuroides, Amaranthus retroflexus, Avena fatua, Echinochloa crus-galli, Hordeum murinum, Lolium rigidum, Pharbitis purpurea, Polygonum convolvulus, Setaria viridis, Stellaria media, Veronica persica and Viola tricolor at an application rate of 0.32 kg of active substance or less per hectare.

Row | SMILES | pest or weed control at 320 g/ha (Echinochloa crus-galli) [%] | pest or weed control at 320 g/ha (Alopecurus myosuroides) [%] | pest or weed control at 320 g/ha (Polygonum convolvulus) [%] | pest or weed control at 320 g/ha (Veronica persica) [%] | pest or weed control at 320 g/ha (Pharbitis purpurea) [%] | pest or weed control at 320 g/ha (Setaria viridis) [%] | pest or weed control at 320 g/ha (Avena fatua) [%] | further results
1 | CC(F)(F)C1(C(=O)NC2COC(C(=O)O)C2)CC(c2cc(F)cc(F)c2)=NO1 (stereo not shown) [I-50] | – | – | – | – | – | – | – | Post-emergence herbicidal activity against ECHCG in % (Echinochloa crus-galli): 90%; Post-emergence herbicidal activity against ABUTH in % (Abutilon theophrasti): 90%; Post-emergence herbicidal activity against LOLRI in % (Lolium rigidum): 90%; Post-emergence herbicidal activity against HORMU in % (Hordeum murinum): 100%; Post-emergence herbicidal activity against ALOMY in % (Alopecurus myosuroides): 90%; Post-emergence herbicidal activity against POLCO in % (Polygonum convolvulus): 90%; Post-emergence herbicidal activity against VERPE in % (Veronica persica): 90%; Post-emergence herbicidal activity against PHBPU in % (Pharbitis purpurea): 90%; Post-emergence herbicidal activity against STEME in % (Stellaria media): 90%; Post-emergence herbicidal activity against AVEFA in % (Avena fatua): 100%; Post-emergence herbicidal activity against VIOTR in % (Viola tricolor): 90%; Post-emergence herbicidal activity against AMARE in % (Amaranthus retroflexus): 80%; Post-emergence herbicidal activity against SETVI in % (Setaria viridis): 90%
2 | COC(=O)[C@]1(OC)C[C@H](NC(=O)C2(C)CC(c3cccc(F)c3)=NO2)CO1 (stereo partly drawn) [I-40, methyl (2S,4S)-4-[[3-(3-fluorophenyl)-5-methyl-4H-isoxazole-5-carbonyl]amino]-2-methoxytetrahydrofuran-2-carboxylate] | 80 | 90 | 80 | 80 | 90 | 80 | – | pest or weed control at 320 g/ha (Hordeum murinum; Hordeum murinum, 504 h): 90%; pest or weed control at 320 g/ha (Stellaria media): 80%; pest or weed control at 320 g/ha (Amaranthus retroflexus): 80%
3 | C=C[C@@]1(C(=O)N[C@H]2CO[C@@H](C(=O)OC)C2)CC(c2cc(F)cc(F)c2)=NO1 (mixture of isomers) [I-22, methyl cis-4-[[(5R)-3-(3,5-difluorophenyl)-5-vinyl-4H-isoxazole-5-carbonyl]amino]tetrahydrofuran-2-carboxylate] | – | – | 90 | – | – | – | – | –
4 | CCOC(=O)C1(NC(=O)C2(C)CC(c3cc(F)cc(F)c3)=NO2)CCOC1 (stereo not shown) [I-18, ethyl 3-[[3-(3,5-difluorophenyl)-5-methyl-4H-isoxazole-5-carbonyl]amino]tetrahydrofuran-3-carboxylate] | – | 80 | – | 80 | – | – | 100 | –
5 | CC1(C(=O)N[C@H]2CO[C@@H](C(=O)O)C2)CC(c2cccc(F)c2)=NO1 (relative stereo) [I-20, cis-4-[[3-(3-fluorophenyl)-5-methyl-4H-isoxazole-5-carbonyl]amino]tetrahydrofuran-2-carboxylic acid] | 80 | 90 | 80 | 90 | 80 | 80 | 90 | pest or weed control at 320 g/ha [1]: 80 to 100%; pest or weed control at 320 g/ha (Stellaria media): 80%; pest or weed control at 320 g/ha (Amaranthus retroflexus): 80%
6 | COC(=O)C1(NC(=O)C2(C)CC(c3cc(F)cc(F)c3)=NO2)CCOC1 (stereo not shown) [I-17, methyl 3-[[3-(3,5-difluorophenyl)-5-methyl-4H-isoxazole-5-carbonyl]amino]tetrahydrofuran-3-carboxylate] | – | – | 90 | – | – | – | 80 | –
7 | COC(=O)[C@H]1C[C@@H](NC(=O)C2(C)CC(c3cccc(F)c3)=NO2)CO1 (relative stereo) [I-13, methyl cis-4-[[3-(3-fluorophenyl)-5-methyl-4H-isoxazole-5-carbonyl]amino]tetrahydrofuran-2-carboxylate] | 80 | 90 | 80 | 80 | 90 | 80 | 90 | pest or weed control at 320 g/ha [1]: 80 to 100%

From patent US11597724B2, “Herbicidally active 3-phenylisoxazoline-5-carboxamides of tetrahydro and dihydrofuran carboxylic acids and esters” (Bayer Aktiengesellschaft, priority 2017, dated 2023)
